Assay results taken from patent US20110020366A1, “USE OF BENZOPHENONE DERIVATIVE OR SALT THEREOF AND TNF ALPHA INHIBITOR IN COMBINATION AND PHARMACEUTICAL COMPOSITION CONTAINING THE DERIVATIVE OR SALT THEREOF AND THE INHIBITOR” (TOYAMA CHEMICAL CO., LTD., priority 2008, published 2011).

Tested on: Mouse Type II Collagen-Induced Arthritis
Experiment: Mouse type II collagen-induced arthritis, arthritis score / inhibition rate
Assay type: in vivo
Settings: compound A 30 mg/kg orally once a day for 10 days; DBA/1 J mice; day following the final administration
Method: Eight-week-old male DBA/1 J mice (9 or 10 mice per group; Charles River Laboratories Japan) were used. A 2 mg/mL bovine type II collagen dissolved in a 0.1 mol/L acetic acid solution (Koken Co., Ltd.) was mixed with an equal volume of Freund's complete adjuvant (BD Diagnostic Systems) to prepare an emulsion. The emulsion (0.2 mL) was intradermally injected into the hip of each mouse. Twenty-one days after the primary immunization, the same treatment was carried out (secondary sensitization), so that type II collagen arthritis was induced.
Compound A was dissolved in a 2-fold molar amount of sodium hydroxide solution, and a 3-fold weight of polyvinylpyrrolidone was then added to the solution, followed by dilution with distilled water. The concentration of compound A in a compound A (30 mg/kg)-dosing solution was adjusted to be 3 mg/mL. The concentration of compound A in compound A (3 mg/kg)-dosing solution for combined administration was adjusted to be 0.3 mg/mL. Each dosing solution was orally administered to the mice.
The anti-TNFα antibody was dissolved in phosphate buffered saline. The concentration of the anti-TNFα antibody in the anti-TNFα antibody (250 μg/mouse)-dosing solution was adjusted to be 1.25 mg/mL. […]
The knuckle portion and the articulations of wrist and tarsus portions of the four paws of each mouse were evaluated using the following 4 scores. […]

O=C(O)CCc1cc(C(=O)c2ccc(OC3CCCC3)cc2O)ccc1OCc1ccc2c(O)noc2c1 [Compound A, 3-(5-(4-(cyclopentyloxy)-2-hydroxybenzoyl)-2-((3-hydroxy-1,2-benzisoxazol-6-yl)methoxy)phenyl)propionic acid]
Arthritis inhibition rate (%): 23%
